Measurements published in ChEMBL document CHEMBL1136287, “Synthesis and testing of novel phenyl substituted side-chain analogues of classical cannabinoids” (Bioorg Med Chem Lett, 2003).

What was measured:
[1] = target: T1, Cannabinoid receptor 1 (Homo sapiens, UniProt P21554); experiment: Binding affinity towards Cannabinoid receptor 1
[2] = target: T2, Cannabinoid receptor 2 (Homo sapiens, UniProt P34972); experiment: Binding affinity towards Cannabinoid receptor 2
[3] = target: T2, Cannabinoid receptor 2; experiment: Binding affinity towards Cannabinoid receptor 2 using CP-55940 as radioligand in HEK293 EBNA cells; assay type: cell-based
[4] = target: T1, Cannabinoid receptor 1; experiment: Binding affinity towards Cannabinoid receptor 1 using CP-55940 as radioligand in HEK293 EBNA cells; assay type: cell-based

T2 sequence (P34972 whole entry): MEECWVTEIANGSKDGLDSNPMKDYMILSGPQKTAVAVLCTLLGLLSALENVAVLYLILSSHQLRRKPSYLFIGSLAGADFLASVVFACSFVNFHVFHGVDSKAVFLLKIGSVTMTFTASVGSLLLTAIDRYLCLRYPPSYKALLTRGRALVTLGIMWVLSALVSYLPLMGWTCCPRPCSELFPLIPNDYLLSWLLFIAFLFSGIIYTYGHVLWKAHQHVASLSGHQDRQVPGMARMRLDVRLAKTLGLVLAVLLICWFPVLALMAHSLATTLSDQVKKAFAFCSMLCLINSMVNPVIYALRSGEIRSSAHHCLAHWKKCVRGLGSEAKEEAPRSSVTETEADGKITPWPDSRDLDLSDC
T1 sequence (P21554 whole entry): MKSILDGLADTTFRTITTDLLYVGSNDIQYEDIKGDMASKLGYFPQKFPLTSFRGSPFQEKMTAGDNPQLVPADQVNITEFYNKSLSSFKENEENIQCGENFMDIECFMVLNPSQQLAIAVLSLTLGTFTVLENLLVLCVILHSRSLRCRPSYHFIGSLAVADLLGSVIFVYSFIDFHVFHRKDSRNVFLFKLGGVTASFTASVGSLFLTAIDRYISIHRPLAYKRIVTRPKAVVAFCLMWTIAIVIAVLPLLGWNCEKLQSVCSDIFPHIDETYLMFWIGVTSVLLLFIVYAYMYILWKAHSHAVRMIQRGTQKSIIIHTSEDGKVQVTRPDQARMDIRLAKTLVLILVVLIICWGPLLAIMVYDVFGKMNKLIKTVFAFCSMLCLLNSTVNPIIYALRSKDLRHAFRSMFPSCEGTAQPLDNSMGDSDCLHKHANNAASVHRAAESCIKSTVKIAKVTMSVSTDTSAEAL

Structure (SMILES)	Ki [1] [nM]	Ki [2] [nM]	Ki [3] [nM]	Ki [4] [nM]
CC1=CC[C@@H]2[C@@H](C1)c1c(O)cc(C3(C4CCCCC4)SCCS3)cc1OC2(C)C	1.86	1.05		
CC1=CC[C@@H]2[C@@H](C1)c1c(O)cc(C3(c4ccccc4)SCCS3)cc1OC2(C)C			17.6	17.3
CC1=CC[C@@H]2[C@@H](C1)c1c(O)cc(C(C)(C)c3ccccc3)cc1OC2(C)C			0.91	12.3
CC1=CC[C@@H]2[C@@H](C1)c1c(O)cc(C(C)(C)C3CCCCC3)cc1OC2(C)C			0.65	0.57
CC1=CC[C@@H]2[C@@H](C1)c1c(O)cc(Cc3ccccc3)cc1OC2(C)C			85.9	67.6
